Results reported in patent publication US5071749A, “Glycopetide antibiotic PA-45052-B” (Shionogi & Co., Ltd., priority 1987, dated 1991).
Values after ≈ are worked out from the molar mass of the structure shown.

What was measured:
[1] = tested on: Staphylococcus aureus SR14; assay: In vitro antibacterial activity, agar dilution method (MIC); format: cell-based; details: Staphylococcus aureus SR14, penicillin-resistant, 37° C., 18-20 hrs
[2] = tested on: Staphylococcus aureus SR1626; assay: as above; format: cell-based; details: Staphylococcus aureus SR1626, methicillin-resistant, 37° C., 18-20 hrs
Cl. perfringens SP07 = format: cell-based, Clostridium perfringens; details: strain SP07, origin chicken; GAM agar, anaerobic, 37° C., 24 hours
[3] = tested on: Cl. perfringens FC 2208/75; format: cell-based, Clostridium perfringens; details: strain FC 2208/75, origin cow; GAM agar, anaerobic, 37° C., 24 hours
[4] = tested on: Streptococcus faecalis SR 1004; assay: In vitro antibacterial activity, agar dilution method (MIC); details: horse serum 0.5%, 37° C., 18-20 hrs
[5] = tested on: Staphylococcus aureus SR3626; assay: as above; format: cell-based; details: Staphylococcus aureus SR3626, methicillin-resistant, 37° C., 18-20 hrs
Cl. perfringens CW-1970 = format: cell-based, Clostridium perfringens; details: strain CW-1970, origin cow; GAM agar, anaerobic, 37° C., 24 hours
[6] = tested on: Cl. perfringens NCTC-8798; format: cell-based, Clostridium perfringens; details: strain NCTC-8798, origin cow; GAM agar, anaerobic, 37° C., 24 hours
[7] = tested on: Staphylococcus aureus SR3131; assay: In vitro antibacterial activity, agar dilution method (MIC); format: cell-based; details: Staphylococcus aureus SR3131, methicillin-resistant, 37° C., 18-20 hrs
[8] = tested on: Streptococcus epidermidis ATCC 14490; assay: as above; details: 37° C., 18-20 hrs
[9] = tested on: Streptococcus pyogenes C-203; assay: as above; details: horse serum 0.5%, 37° C., 18-20 hrs
Cl. perfringens 9C-02 = format: cell-based, Clostridium perfringens; details: strain 9C-02, origin chicken; GAM agar, anaerobic, 37° C., 24 hours
Cl. perfringens S-79 = format: cell-based, Clostridium perfringens; details: strain S-79, origin cow; GAM agar, anaerobic, 37° C., 24 hours
Cl. perfringens 02441 = format: cell-based, Clostridium perfringens; details: strain 02441, origin chicken; GAM agar, anaerobic, 37° C., 24 hours
[10] = tested on: Staphylococcus aureus ATCC 25923; assay: In vitro antibacterial activity, agar dilution method (MIC); details: 37° C., 18-20 hrs
[11] = tested on: Streptococcus pneumoniae Type I; assay: Antibacterial activity in vivo, mouse intraperitoneal infection (ED50); details: Slc-ICR female mice, i.p. inoculation of Streptococcus pneumoniae Type I; s.c. dosing 1 and 5 hours later; survival on day 7
Procedure: (§1) Test method: The test organism is intraperitoneally inoculated to Slc-ICR female mice (8 mice per group), and PA-45052-A, -B or -C (two-fold dilution) is subcutaneously administered twice one hour later and 5 hours later.
(§2) Results: The 50% effective dose (ED50) is calculated from the survival rate on day 7.

[12] = tested on: Staphylococcus aureus SR 3637; assay: as above; details: Slc-ICR female mice, i.p. inoculation of S. aureus SR 3637 (methicillin-resistant); s.c. dosing 1 and 5 hours later; survival on day 7
Procedure: as §1, §2

[13] = tested on: Streptococcus pyogenes C-203; assay: as above; details: Slc-ICR female mice, i.p. inoculation of Streptococcus pyogenes C-203; s.c. dosing 1 and 5 hours later; survival on day 7
Procedure: as §1, §2

[14] = tested on: Staphylococcus aureus SR 2030; assay: as above; details: Slc-ICR female mice, i.p. inoculation of S. aureus SR 2030 (methicillin-resistant); s.c. dosing 1 and 5 hours later; survival on day 7
Procedure: as §1, §2

[15] = tested on: Cl. perfringens NCTC-10239; format: cell-based, Clostridium perfringens; details: strain NCTC-10239, origin cow; GAM agar, anaerobic, 37° C., 24 hours
[16] = tested on: Cl. perfringens NCTC-8239; format: cell-based, Clostridium perfringens; details: strain NCTC-8239, origin cow; GAM agar, anaerobic, 37° C., 24 hours
[17] = tested on: Staphylococcus aureus PDA 209P JC-1; assay: In vitro antibacterial activity, agar dilution method (MIC); details: 37° C., 18-20 hrs
[18] = tested on: Staphylococcus aureus SMITH; assay: as above; details: 37° C., 18-20 hrs
mouse = assay: LD50 on injection to mouse; format: in vivo
Text: The growth-stimulating agent of this invention not only promotes growth of animals but also improves feed efficiency. Naturally, it is effective against infections by bacteria.

[19] = tested on: Streptococcus agalactiae SR 1247; assay: In vitro antibacterial activity, agar dilution method (MIC); details: horse serum 0.5%, 37° C., 18-20 hrs
[20] = tested on: Streptococcus pneumoniae Type I; assay: as above; details: horse serum 0.5%, 37° C., 18-20 hrs
Cl. perfringens 3C-01 = format: cell-based, Clostridium perfringens; details: strain 3C-01, origin chicken; GAM agar, anaerobic, 37° C., 24 hours
Cl. perfringens 6B-10 = format: cell-based, Clostridium perfringens; details: strain 6B-10, origin cow; GAM agar, anaerobic, 37° C., 24 hours
broiler chicks = assay: Growth-stimulation test on chicks; format: in vivo, broiler chicks (arbor acre); details: 20 ppm in feed for 14 days; for FCR: feed efficiency (B/A) / FCR (%), index when control group is 100 / Increase of weight (%), index when control group is 100: broiler chicks; for Increase of weight A (M = g) ± SD (average increase of weight): broiler chicks 8 to 22 days old, 24 chicks; for FCR (%), index when control group is 100 / Increase of weight (%), index when control group is 100: control = 100
Text: The growth-stimulating activities of PA-45052-A, PA-45052-B and PA-45052-E on broiler chicks (arbor acre, 8 days old) were investigated by using the known antibiotic thiopeptin as a referential agent. Chicks were fed with a feed mush (crude protein (CP) concentration 18%, each agent's concentration 20 ppm, not supplemented with other antibiotics) for 14 days in the battery brooders. The method of this experiment was as follows. After chicks were fed by floor pen with a feed (CP concentration 23%) from 0 to 8 days, they were divided into 5 groups (24 chicks a group, 12 male and 12 female) in such a way that the average weights of the groups are equal. To each group was administered PA-45052-A (20 ppm), PA-45052-B (20 ppm), PA-45052-E (20 ppm), thiopeptin (20 ppm) or only a feed (CP 18%) for 14 days. Each group was fed in cages (435×600×410 mm, each cage has 6-7 chicks) at 26°±2° C. for 14 days (up to 22 days old). Effectiveness was estimated from the increase of weight and the feed efficiency.

SMILES | MIC [1] | MIC [2] | MIC (Cl. perfringens SP07) | MIC [3] | MIC [4] | MIC [5] | MIC (Cl. perfringens CW-1970) | MIC [6] | MIC [7] | MIC [8] | MIC [9] | MIC (Cl. perfringens 9C-02) | MIC (Cl. perfringens S-79) | MIC (Cl. perfringens 02441) | MIC [10] | ED50 (50% effective dose) [11] | ED50 (50% effective dose) [12] | ED50 (50% effective dose) [13] | ED50 (50% effective dose) [14] | MIC [15] | further results
CNC(CC(C)C)C(=O)NC1C(=O)NC(CC(N)=O)C(=O)NC2C(=O)NC3C(=O)NC(C(=O)NC(C(=O)O)c4cc(O)cc(O)c4-c4cc3ccc4O)C(OC3CC(C)(N)C(O)C(C)O3)c3ccc(c(Cl)c3)Oc3cc2cc(c3OC2OC(CO)C(O)C(O)C2OC2CC(C)(N)C(O)C(C)O2)Oc2ccc(cc2Cl)C1O (stereo not shown) [PA-45052-A] | 0.39 µg/mL (≈ 0.245 µM) | 0.39 µg/mL (≈ 0.245 µM) | 0.2 µg/mL (≈ 0.126 µM) | 0.39 µg/mL (≈ 0.245 µM) | 0.78 µg/mL (≈ 0.49 µM) | 0.39 µg/mL (≈ 0.245 µM) | 0.39 µg/mL (≈ 0.245 µM) | 0.39 µg/mL (≈ 0.245 µM) | 0.39 µg/mL (≈ 0.245 µM) | 0.78 µg/mL (≈ 0.49 µM) | 0.2 µg/mL (≈ 0.126 µM) | 0.39 µg/mL (≈ 0.245 µM) | 0.39 µg/mL (≈ 0.245 µM) | 0.39 µg/mL (≈ 0.245 µM) | 0.39 µg/mL (≈ 0.245 µM) | 0.19 mg/kg/dose | 1.91 mg/kg/dose | 0.14 mg/kg/dose | 0.99 mg/kg/dose | 0.2 µg/mL (≈ 0.126 µM) | MIC [16]: 0.2 µg/mL (≈ 0.126 µM); MIC [17]: 0.2 µg/mL (≈ 0.126 µM); MIC [18]: 0.39 µg/mL (≈ 0.245 µM); LD50 (mouse): > 1000 mg/kg; MIC [19]: 0.2 µg/mL (≈ 0.126 µM); MIC [20]: 0.1 µg/mL (≈ 0.0628 µM); MIC (Cl. perfringens 3C-01): 0.78 µg/mL (≈ 0.49 µM); MIC (Cl. perfringens 6B-10): 0.39 µg/mL (≈ 0.245 µM); FCR: feed efficiency (B/A) (broiler chicks): 1.63; Increase of weight A (M = g) ± SD (average increase of weight) (broiler chicks): 440.9 ± 60.4 g; FCR (%), index when control group is 100 (broiler chicks): 95.3%; Increase of weight (%), index when control group is 100 (broiler chicks): 105.9%
CNC(CC(C)C)C(=O)NC1C(=O)NC(CC(N)=O)C(=O)NC2C(=O)NC3C(=O)NC(C(=O)NC(C(=O)O)c4cc(O)cc(O)c4-c4cc3ccc4O)C(OC3CC(C)(N)C(O)C(C)O3)c3ccc(c(Cl)c3)Oc3cc2cc(c3OC2OC(CO)C(O)C(O)C2O)Oc2ccc(cc2Cl)C1O (stereo not shown) [PA-45052-B] | 0.78 µg/mL (≈ 0.538 µM) | 0.78 µg/mL (≈ 0.538 µM) | 0.2 µg/mL (≈ 0.138 µM) | 0.39 µg/mL (≈ 0.269 µM) | 0.78 µg/mL (≈ 0.538 µM) | 0.39 µg/mL (≈ 0.269 µM) | 0.39 µg/mL (≈ 0.269 µM) | 0.39 µg/mL (≈ 0.269 µM) | 0.39 µg/mL (≈ 0.269 µM) | 1.56 µg/mL (≈ 1.08 µM) | 0.2 µg/mL (≈ 0.138 µM) | 0.39 µg/mL (≈ 0.269 µM) | 0.39 µg/mL (≈ 0.269 µM) | 0.39 µg/mL (≈ 0.269 µM) | 0.39 µg/mL (≈ 0.269 µM) | 0.38 mg/kg/dose | 2.84 mg/kg/dose | 0.44 mg/kg/dose | 1.45 mg/kg/dose | 0.2 µg/mL (≈ 0.138 µM) | MIC [16]: 0.2 µg/mL (≈ 0.138 µM); MIC [17]: 0.39 µg/mL (≈ 0.269 µM); MIC [18]: 0.78 µg/mL (≈ 0.538 µM); LD50 (mouse): 1439 mg/kg; MIC [19]: 0.39 µg/mL (≈ 0.269 µM); MIC [20]: 0.2 µg/mL (≈ 0.138 µM); MIC (Cl. perfringens 3C-01): 0.78 µg/mL (≈ 0.538 µM); MIC (Cl. perfringens 6B-10): 0.39 µg/mL (≈ 0.269 µM); FCR: feed efficiency (B/A) (broiler chicks): 1.60; Increase of weight A (M = g) ± SD (average increase of weight) (broiler chicks): 438.5 ± 51.6 g; FCR (%), index when control group is 100 (broiler chicks): 93.6%; Increase of weight (%), index when control group is 100 (broiler chicks): 105.4%
